Experimental data: US8076338B2, “Kinase modulators and methods of use” (Exelixis, Inc., priority 2004, dated 2011)
Read-outs that look alike come from different tables or passages of the source.

What was measured:
[1] = target: AktK (Homo sapiens, UniProt P31749); experiment: Luciferase-coupled chemiluminescence kinase assay (ATP consumption); assay type: biochemical; settings: read-out: AKT-1 IC50
Outline: (§1)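 Activity is read as ATP depletion: luciferase-luciferin reagent added after a 3 h ambient-temperature kinase reaction, with total ATP use limited to 25-60%. Before ATP addition, 2.5-5 nM kinase and compound were preincubated 30 min in Tris pH 7.5/MgCl2/TX-100/DTT buffer; […].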

[2] = target: p70S6K (Homo sapiens, UniProt P23443); experiment: as above; assay type: biochemical
Chain of p70S6K (P23443 whole entry): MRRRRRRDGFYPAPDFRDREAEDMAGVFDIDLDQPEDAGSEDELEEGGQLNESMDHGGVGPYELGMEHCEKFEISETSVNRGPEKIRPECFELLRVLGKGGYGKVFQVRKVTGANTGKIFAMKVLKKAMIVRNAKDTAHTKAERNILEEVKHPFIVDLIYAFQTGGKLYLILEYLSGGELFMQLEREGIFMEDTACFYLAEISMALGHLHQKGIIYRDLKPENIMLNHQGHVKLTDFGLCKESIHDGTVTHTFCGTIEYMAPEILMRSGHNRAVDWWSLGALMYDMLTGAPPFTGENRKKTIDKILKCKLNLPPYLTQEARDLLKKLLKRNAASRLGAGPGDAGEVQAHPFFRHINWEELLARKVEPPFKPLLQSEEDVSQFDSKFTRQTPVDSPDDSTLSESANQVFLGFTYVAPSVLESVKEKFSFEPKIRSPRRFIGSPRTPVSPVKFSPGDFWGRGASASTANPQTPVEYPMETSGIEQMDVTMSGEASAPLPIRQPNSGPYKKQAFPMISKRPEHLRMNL
Outline: as §1

Chain of AktK (P31749 whole entry): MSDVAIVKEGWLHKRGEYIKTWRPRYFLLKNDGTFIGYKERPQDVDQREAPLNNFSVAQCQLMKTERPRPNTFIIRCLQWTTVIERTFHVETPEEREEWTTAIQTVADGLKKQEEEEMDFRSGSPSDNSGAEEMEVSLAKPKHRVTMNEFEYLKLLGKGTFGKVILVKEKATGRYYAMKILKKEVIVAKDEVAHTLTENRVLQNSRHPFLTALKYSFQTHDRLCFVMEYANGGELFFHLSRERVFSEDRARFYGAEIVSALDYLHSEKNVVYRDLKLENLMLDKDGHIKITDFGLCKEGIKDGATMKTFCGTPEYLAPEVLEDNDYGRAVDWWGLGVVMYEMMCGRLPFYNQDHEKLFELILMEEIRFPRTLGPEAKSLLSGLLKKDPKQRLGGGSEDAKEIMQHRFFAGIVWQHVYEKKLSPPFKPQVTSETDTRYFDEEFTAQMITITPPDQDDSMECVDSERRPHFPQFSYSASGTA

Molecule	IC50 [1] [µM]	IC50 [2] [µM]	IC50 ([1]; Table 1, class symbols per key) [µM]	IC50 ([2]; Table 1, class symbols per key) [µM]
N′-{3-[4-(3-bromo-1H-pyrazolo[3,4-d]pyrimidin-4-yl)piperazin-1-yl]-2-methyl-5-[(2-methyl-propyl)oxy]phenyl}-N,N-diethylethane-1,2-diamine [Entry 185]			< 0.1	< 0.1
CCOc1cc(NCCN2CCCC2)c(C)c(N2CCN(c3ncnc4[nH]nc(Br)c34)CC2)c1 [Entry 212, 3-[4-(3-bromo-1H-pyrazolo[3,4-d]pyrimidin-4-yl)piperazin-1-yl]-5-(ethyloxy)-2-methyl-N-(2-pyrrolidin-1-ylethyl)aniline]			< 0.1	< 0.1
Cc1ccc(Cl)cc1N1CCN(c2ncnc3[nH]nc(-c4ccc(O)cc4)c23)CC1 [Entry 331, 4-{4-[4-(5-chloro-2-methylphenyl)piperazin-1-yl]-1H-pyrazolo[3,4-d]pyrimidin-3-yl}phenol]	1 to 10	< 0.1		
FC(F)(F)c1ccnc(N2CCN(c3ncnc4[nH]nc(Br)c34)CC2)c1 [Entry 117, 3-bromo-4-{4-[4-(trifluoromethyl)pyridin-2-yl]piperazin-1-yl}-1H-pyrazolo[3,4-d]pyrimidine]			≥ 10	0.1 to 1
Cc1ccc(N2CCN(c3ncnc4[nH]nc(Br)c34)CC2)cc1CCCN1CCCC1 [Entry 67, 3-bromo-4-{4-[4-methyl-3-(3-pyrrolidin-1-ylpropyl)phenyl]piperazin-1-yl}-1H-pyrazolo[3,4-d]pyrimidine]			1 to 10	0.1 to 1
Cc1ccc(Cl)cc1N1CCN(c2ncnc3[nH]nc(Nc4ccccc4)c23)CC1 [Entry 332, 4-[4-(5-chloro-2-methylphenyl)piperazin-1-yl]-N-phenyl-1H-pyrazolo[3,4-d]pyrimidin-3-amine]	1 to 10	1 to 10		
Cc1c(OCCCN2CCN(C)CC2)cc(Cl)cc1N1CCN(c2ncnc3[nH]nc(Br)c23)CC1 [Entry 85, 3-bromo-4-[4-(5-chloro-2-methyl-3-{[3-(4-methylpiperazin-1-yl)propyl]oxy}phenyl)piperazin-1-yl]-1H-pyrazolo[3,4-d]pyrimidine]			< 0.1	< 0.1
Cc1c(CCCN2CCOCC2)cc(Cl)cc1N1CCN(c2ncnc3[nH]nc(Br)c23)CC1 [Entry 18, 3-bromo-4-{4-[5-chloro-2-methyl-3-(3-morpholin-4-ylpropyl)phenyl]piperazin-1-yl}-1H-pyrazolo[3,4-d]pyrimidine]			0.1 to 1	< 0.1
Clc1cccc(N2CCN(c3ncnc4[nH]nc(Br)c34)CC2)c1 [Entry 134, 3-bromo-4-[4-(3-chlorophenyl)piperazin-1-yl]-1H-pyrazolo[3,4-d]pyrimidine]			≥ 10	< 0.1
Cc1c(Br)cc(Cl)cc1N1CCN(c2nc(N)nc3[nH]ncc23)CC1 [Entry 159, 4-[4-(3-bromo-5-chloro-2-methylphenyl)piperazin-1-yl]-1H-pyrazolo[3,4-d]pyrimidin-6-amine]			≥ 10	1 to 10
N#Cc1cccnc1N1CCN(c2ncnc3[nH]nc(Br)c23)CC1 [Entry 127, 2-[4-(3-bromo-1H-pyrazolo[3,4-d]pyrimidin-4-yl)piperazin-1-yl]pyridine-3-carbonitrile]			≥ 10	0.1 to 1
Cc1ccc(Cl)cc1N1CCN(c2ncnc3[nH]nc(-c4ccccc4)c23)CC1 [Entry 327, 4-[4-(5-chloro-2-methylphenyl)piperazin-1-yl]-3-phenyl-1H-pyrazolo[3,4-d]pyrimidine]	1 to 10	< 0.1		
CCc1n[nH]c2ncnc(N3CCN(c4cc(C(F)(F)F)ccc4Cl)CC3)c12 [Entry 171, 4-{4-[2-chloro-5-(trifluoromethyl)phenyl]piperazin-1-yl}-3-ethyl-1H-pyrazolo[3,4-d]pyrimidine]			1 to 10	< 0.1
Cc1c(OCCN2CCOCC2)cc(Cl)cc1N1CCN(c2ncnc3[nH]nc(C(F)(F)F)c23)CC1 [Entry 41, 4-(4-{5-chloro-2-methyl-3-[(2-morpholin-4-ylethyl)oxy]phenyl}piperazin-1-yl)-3-(trifluoromethyl)-1H-pyrazolo[3,4-d]pyrimidine]			1 to 10	< 0.1
CCc1n[nH]c2ncnc(N3CCN(c4cc(Cl)cc(OC)c4C)CC3)c12 [Entry 126, 4-{4-[5-chloro-2-methyl-3-(methyloxy)phenyl]piperazin-1-yl}-3-ethyl-1H-pyrazolo[3,4-d]pyrimidine]			≥ 10	< 0.1
Cc1c(OCCC2CCN(C)CC2)cc(Cl)cc1N1CCN(c2ncnc3[nH]nc(Br)c23)CC1 [Entry 89, 3-bromo-4-[4-(5-chloro-2-methyl-3-{[2-(1-methyl-piperidin-4-yl)ethyl]oxy}phenyl)piperazin-1-yl]-1H-pyrazolo[3,4-d]pyrimidine]			< 0.1	< 0.1
Cc1ccc(N2CCN(c3ncnc4[nH]nc(Br)c34)CC2)c(C)c1 [Entry 64, 3-bromo-4-[4-(2,4-dimethylphenyl)piperazin-1-yl]-1H-pyrazolo[3,4-d]pyrimidine]			1 to 10	0.1 to 1

The next lines start with the values.

IC50 [1] [µM]	IC50 [2] [µM]	IC50 ([1]; Table 1, class symbols per key) [µM]	IC50 ([2]; Table 1, class symbols per key) [µM]	Molecule
1 to 10	< 0.1			CCc1n[nH]c2ncnc(N3CCN(c4cc(Cl)cc(C(=O)NCCN(C)C)c4OC)CC3)c12 [Entry 374, 5-chloro-N-[2-(dimethylamino)ethyl]-3-[4-(3-ethyl-1H-pyrazolo[3,4-d]pyrimidin-4-yl)piperazin-1-yl]-2-(methyloxy)benzamide]
≥ 10	0.1 to 1			Cc1ccccc1N1CCN(c2ncnc3[nH]cnc23)CC1 [Entry 315, 6-[4-(2-methylphenyl)piperazin-1-yl]-9H-purine]
1 to 10	< 0.1			Cc1ccc(Cl)cc1N1CCN(c2ncnc3[nH]nc(C)c23)CC1 [Entry 321, 4-[4-(5-chloro-2-methylphenyl)piperazin-1-yl]-3-methyl-1H-pyrazolo[3,4-d]pyrimidine]
		0.1 to 1	< 0.1	Cn1c(CCCO)nc2c(N3CCN(c4ncnc5[nH]nc(Br)c45)CC3)cc(C(F)(F)F)cc21 [Entry 273, 3-[4-[4-(3-bromo-1H-pyrazolo[3,4-d]pyrimidin-4-yl)piperazin-1-yl]-1-methyl-6-(trifluoromethyl)-1H-benzimidazol-2-yl]propan-1-ol]
≥ 10	1 to 10			Fc1ccc(N2CCN(c3ncnc4[nH]cnc34)CC2)cc1 [Entry 309, 6-[4-(4-fluorophenyl)piperazin-1-yl]-9H-purine]
≥ 10	1 to 10			COc1ccc(N2CCN(c3ncnc4[nH]ccc34)CC2)cc1 [Entry 304, 4-{4-[4-(methyloxy)phenyl]piperazin-1-yl}-7H-pyrrolo[2,3-d]pyrimidine]
		< 0.1	< 0.1	CCOCc1cc(NCCN2CCCC2)c(C)c(N2CCN(c3ncnc4[nH]nc(Br)c34)CC2)c1 [Entry 272, 3-[4-(3-bromo-1H-pyrazolo[3,4-d]pyrimidin-4-yl)piperazin-1-yl]-5-[(ethyloxy)methyl]-2-methyl-N-(2-pyrrolidin-1-ylethyl)aniline]
1 to 10	< 0.1			CCc1n[nH]c2ncnc(N3CCN(c4cccc(Cl)c4)C(CO)C3)c12 (centres unmarked) [Entry 379, [1-(3-chlorophenyl)-4-(3-ethyl-1H-pyrazolo[3,4-d]pyrimidin-4-yl)piperazin-2-yl]methanol]
		1 to 10	0.1 to 1	CC(C)CCNc1c(F)c(F)nc(N2CCN(c3ncnc4[nH]nc(Br)c34)CC2)c1F [Entry 257, 2-[4-(3-bromo-1H-pyrazolo[3,4-d]pyrimidin-4-yl)piperazin-1-yl]-3,5,6-trifluoro-N-(3-methylbutyl)pyridin-4-amine]
		< 0.1	< 0.1	Cc1c(NCCN2CCCC2)cc(C(=O)c2ccccc2)cc1N1CCN(c2ncnc3[nH]nc(Br)c23)CC1 [Entry 236, {3-[4-(3-bromo-1H-pyrazolo[3,4-d]pyrimidin-4-yl)piperazin-1-yl]-4-methyl-5-[(2-pyrrolidin-1-ylethyl)amino]phenyl}(phenyl)methanone]
		≥ 10	0.1 to 1	Cc1ccc(Cl)cc1N1CCN(c2ncnc3[nH]nc(Br)c23)C[C@H]1C [Entry 176, 3-bromo-4-[(3R)-4-(5-chloro-2-methylphenyl)-3-methylpiperazin-1-yl]-1H-pyrazolo[3,4-d]pyrimidine]
		< 0.1	< 0.1	CCCCC(=O)c1cc(NCCN2CCCC2)c(C)c(N2CCN(c3ncnc4[nH]nc(Br)c34)CC2)c1 [Entry 228, 1-{3-[4-(3-bromo-1H-pyrazolo[3,4-d]pyrimidin-4-yl)piperazin-1-yl]-4-methyl-5-[(2-pyrrolidin-1-ylethyl)amino]phenyl}pentan-1-one]
		< 0.1	< 0.1	Cc1ccc(-c2ccccc2OCCN2CCOCC2)cc1N1CCN(c2ncnc3[nH]nc(Br)c23)CC1 [Entry 279, 3-bromo-4-(4-{4-methyl-2′-[(2-morpholin-4-ylethyl)oxy]biphenyl-3-yl}piperazin-1-yl)-1H-pyrazolo[3,4-d]pyrimidine]
≥ 10	1 to 10			c1ccc(N2CCN(c3ncnc4[nH]cnc34)CC2)cc1 [Entry 293, 6-(4-phenylpiperazin-1-yl)-9H-purine]
		< 0.1	< 0.1	Cc1c(NCCN2CCCC2)cc(C(=O)NC(C)(C)C)cc1N1CCN(c2ncnc3[nH]nc(Br)c23)CC1 [Entry 214, 3-[4-(3-bromo-1H-pyrazolo[3,4-d]pyrimidin-4-yl)piperazin-1-yl]-N-(1,1-dimethylethyl)-4-methyl-5-[(2-pyrrolidin-1-ylethyl)amino]benzamide]
≥ 10	0.1 to 1			Clc1cccc(N2CCN(c3ncnc4[nH]cnc34)CC2)c1 [Entry 294, 6-[4-(3-chlorophenyl)piperazin-1-yl]-9H-purine]
		< 0.1	< 0.1	Cc1c(NCCN2CCCC2)cc(C(=O)Nc2ccccc2)cc1N1CCN(c2ncnc3[nH]nc(Br)c23)CC1 [Entry 194, 3-[4-(3-bromo-1H-pyrazolo[3,4-d]pyrimidin-4-yl)piperazin-1-yl]-4-methyl-N-phenyl-5-[(2-pyrrolidin-1-ylethyl)amino]benzamide]
